Like-named read-outs stand apart in the source and are kept apart here.
Molecular target: T1, GLP-1 Receptor (GLP1R) (Homo sapiens, UniProt P43220)
T1 construct: host or cells: HEK293/GLP1R/CRE-LUC
Assay: GLP-1R agonist cAMP stimulation assay (Method 3)
Assay type: cell-based
Details: HEK293/GLP1R/CRE-LUC cells (HDB), Method 3, 30 min incubation
Protocol: Method 3: Activation of GLP-1 receptor is known to stimulate cyclic AMP (cAMP) production in cells which indicates primary coupling to the Gαs subunit of the G protein heterotrimeric complex.
To optimize functional activity directed toward Gαs coupling, a HEK293/CRE-Luc cell line developed by HDB stably expressing the GLP-1 Receptor was used, 200× concentration of compound working solutions were prepared (Agilent Technologies Bravo) with 1/2 log serial dilution in 384-well Echo LDV plate (Labcyte, Cat #LP-0200). 50 nL/well 200× concentration of compound working solutions were moved to 384-well white low volume plate (Greiner, Cat #784075) using Labcyte ECHO550. 1×10^5 cells/mL HEK293/GLP1R/CRE-LUC(HD Biosciences) cell suspensions prepared with assay buffer [DPBS containing 0.5 mM IBMX (Sigma, Cat #15879) and 0.1% BSA (GENVIEW, Cat #FA016-100 g)], 10 μL cell suspensions were added to each well of previous generated assay plate which already contains 50 nL compound at 200× concentration using ThermoFisher Multidrop Combi (1000 cells/well). Seal the plate and incubate at 37° C. with 5% CO2 for 30 min.
After incubation the cAMP assay signal was generated using cAMP dynamic 2 Kit (Cisbio). 5 μL cAMP-d2 working solution was added to each well, followed with 5 μL Anti-cAMP antibody-cryptate working solution added to each well using ThermoFisher Multidrop Combi. Incubate at room temperature for 1 hour protected from light. Read the fluorescence at 665 nm and 615 nm with Reader PerkinElmer EnVision.

[1] = read-out: GLP1R cAMP Stimulation DR: EC50 (nM) [Species: Human, Assay Cell Line: HDB]
[2] = read-out: GLP1R cAMP Stimulation DR: pEC50 (M) [Species: Human, Assay Cell Line: HDB] (converted)

T1 sequence (P43220 24-463): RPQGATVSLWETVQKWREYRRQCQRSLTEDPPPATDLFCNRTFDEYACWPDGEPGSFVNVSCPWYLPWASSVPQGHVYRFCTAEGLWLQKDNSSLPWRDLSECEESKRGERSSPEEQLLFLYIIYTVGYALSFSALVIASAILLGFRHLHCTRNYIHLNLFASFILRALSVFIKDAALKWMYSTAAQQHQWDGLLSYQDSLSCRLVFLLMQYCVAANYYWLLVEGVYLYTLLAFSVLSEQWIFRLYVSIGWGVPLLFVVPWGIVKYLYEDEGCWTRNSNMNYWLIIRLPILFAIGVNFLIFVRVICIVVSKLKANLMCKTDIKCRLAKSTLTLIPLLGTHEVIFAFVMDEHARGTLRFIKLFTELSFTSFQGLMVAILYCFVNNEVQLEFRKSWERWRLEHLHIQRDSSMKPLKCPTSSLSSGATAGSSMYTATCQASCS

Structure (SMILES)	EC50 [1] [nM]	EC50 [2] [nM]
CCP(=O)(CC)c1ccc(-n2ccn(-c3c4c(nn3-c3cc(C)c(F)c(C)c3)CCN(C(=O)c3cc5cc(C6CCOCC6)ccc5n3[C@@]3(c5noc(=O)[nH]5)C[C@@H]3C)[C@H]4C)c2=O)cc1 [Compound 129a, 3-((1S,2S)-1-(2-((S)-3-(3-(4-(diethylphosphoryl)phenyl)-2-oxo-2,3-dihydro-1H-imidazol-1-yl)-2-(4-fluoro-3,5-dimethylphenyl)-4-methyl-4,5,6,7-tetrahydro-2H-pyrazolo[4,3-c]pyridine-5-carbonyl)-5-(tetrahydro-2H-pyran-4-yl)-1H-indol-1-yl)-2-methylcyclopropyl)-1,2,4-oxadiazol-5(4H)-one]	< 0.1	≤ 0.1
CCP(=O)(CC)c1ccc(-n2ccn(-c3c4c(nn3-c3cc(C)c(F)c(C)c3)CCN(C(=O)c3cc5cc(C6CCC(F)(F)CC6)ccc5n3[C@@]3(c5noc(=O)[nH]5)C[C@@H]3C)[C@H]4C)c2=O)cc1NC [Compound 133a, 3-((1S,2S)-1-(2-((S)-3-(3-(4-(diethylphosphoryl)-3-(methylamino)phenyl)-2-oxo-2,3-dihydro-1H-imidazol-1-yl)-2-(4-fluoro-3,5-dimethylphenyl)-4-methyl-4,5,6,7-tetrahydro-2H-pyrazolo[4,3-c]pyridine-5-carbonyl)-5-(4,4-difluorocyclohexyl)-1H-indol-1-yl)-2-methylcyclopropyl)-1,2,4-oxadiazol-5(4H)-one]	0.1 to 0.2	0.1 to 1
CCP(=O)(CC)c1ccc(-n2ccn(-c3c4c(nn3-c3cc(C)c(F)c(C)c3)CCN(C(=O)c3cc5cc(C6CCOCC6)ccc5n3C3(c5noc(=O)[nH]5)CC3)[C@H]4C)c2=O)cc1NC [Compound 135a, (S)-3-(1-(2-(3-(3-(4-(diethylphosphoryl)-3-(methylamino)phenyl)-2-oxo-2,3-dihydro-1H-imidazol-1-yl)-2-(4-fluoro-3,5-dimethylphenyl)-4-methyl-4,5,6,7-tetrahydro-2H-pyrazolo[4,3-c]pyridine-5-carbonyl)-5-(tetrahydro-2H-pyran-4-yl)-1H-indol-1-yl)cyclopropyl)-1,2,4-oxadiazol-5(4H)-one]	< 0.1	≤ 0.1
CCP(=O)(CC)c1c(C)cc(-n2ccn(-c3c4c(nn3-c3cc(C)c(F)c(C)c3)CCN(C(=O)c3cc5cc(C6CCOCC6)ccc5n3[C@@]3(c5noc(=O)[nH]5)C[C@@H]3C)[C@H]4C)c2=O)cc1NC [Compound 140a, 3-((1S,2S)-1-(2-((S)-3-(3-(4-(diethylphosphoryl)-3-methyl-5-(methylamino)phenyl)-2-oxo-2,3-dihydro-1H-imidazol-1-yl)-2-(4-fluoro-3,5-dimethylphenyl)-4-methyl-4,5,6,7-tetrahydro-2H-pyrazolo[4,3-c]pyridine-5-carbonyl)-5-(tetrahydro-2H-pyran-4-yl)-1H-indol-1-yl)-2-methylcyclopropyl)-1,2,4-oxadiazol-5(4H)-one]	0.5 to 5	0.1 to 1
CNc1cc(-n2ccn(-c3c4c(nn3-c3cc(C)c(F)c(C)c3)CCN(C(=O)c3cc5cc(C6CCOCC6)ccc5n3[C@@]3(c5noc(=O)[nH]5)C[C@@H]3C)[C@H]4C)c2=O)ccc1P(=O)(C(C)C)C(C)C [Compound 141a, 3-((1S,2S)-1-(2-((S)-3-(3-(4-(diisopropylphosphoryl)-3-(methylamino)phenyl)-2-oxo-2,3-dihydro-1H-imidazol-1-yl)-2-(4-fluoro-3,5-dimethylphenyl)-4-methyl-4,5,6,7-tetrahydro-2H-pyrazolo[4,3-c]pyridine-5-carbonyl)-5-(tetrahydro-2H-pyran-4-yl)-1H-indol-1-yl)-2-methylcyclopropyl)-1,2,4-oxadiazol-5(4H)-one]	< 0.1	≤ 0.1
CCP(=O)(CC)c1c(F)cc(-n2ccn(-c3c4c(nn3-c3cc(C)c(F)c(C)c3)CCN(C(=O)c3cc5cc(C6CCOCC6)ccc5n3[C@@]3(c5noc(=O)[nH]5)C[C@@H]3C)[C@H]4C)c2=O)cc1NC [Compound 143a, 3-((1S,2S)-1-(2-((S)-3-(3-(4-(diethylphosphoryl)-3-fluoro-5-(methylamino)phenyl)-2-oxo-2,3-dihydro-1H-imidazol-1-yl)-2-(4-fluoro-3,5-dimethylphenyl)-4-methyl-4,5,6,7-tetrahydro-2H-pyrazolo[4,3-c]pyridine-5-carbonyl)-5-(tetrahydro-2H-pyran-4-yl)-1H-indol-1-yl)-2-methylcyclopropyl)-1,2,4-oxadiazol-5(4H)-one]	0.1 to 0.2	0.1 to 1
CCP(=O)(CC)c1cc(F)c(-n2ccn(-c3c4c(nn3-c3cc(C)c(F)c(C)c3)CCN(C(=O)c3cc5cc(C6CCOCC6)ccc5n3[C@@]3(c5noc(=O)[nH]5)C[C@@H]3C)[C@H]4C)c2=O)cc1NC [Compound 144a, 3-((1S,2S)-1-(2-((S)-3-(3-(4-(diethylphosphoryl)-2-fluoro-5-(methylamino)phenyl)-2-oxo-2,3-dihydro-1H-imidazol-1-yl)-2-(4-fluoro-3,5-dimethylphenyl)-4-methyl-4,5,6,7-tetrahydro-2H-pyrazolo[4,3-c]pyridine-5-carbonyl)-5-(tetrahydro-2H-pyran-4-yl)-1H-indol-1-yl)-2-methylcyclopropyl)-1,2,4-oxadiazol-5(4H)-one]	< 0.1	≤ 0.1

Next, values leading:

EC50 [1] [nM]	EC50 [2] [nM]	Structure (SMILES)
< 0.1	≤ 0.1	Cc1cc(-n2nc3c(c2-n2ccn(-c4ccc(P(=O)(C(C)C)C(C)C)cc4)c2=O)[C@H](C)N(C(=O)c2cc4cc(C5CCOCC5)ccc4n2[C@@]2(c4noc(=O)[nH]4)C[C@@H]2C)CC3)cc(C)c1F [Compound 128a, 3-((1S,2S)-1-(2-((S)-3-(3-(4-(diisopropylphosphoryl)phenyl)-2-oxo-2,3-dihydro-1H-imidazol-1-yl)-2-(4-fluoro-3,5-dimethylphenyl)-4-methyl-4,5,6,7-tetrahydro-2H-pyrazolo[4,3-c]pyridine-5-carbonyl)-5-(tetrahydro-2H-pyran-4-yl)-1H-indol-1-yl)-2-methylcyclopropyl)-1,2,4-oxadiazol-5(4H)-one]
0.1 to 0.2	0.1 to 1	CNc1cc(-n2ccn(-c3c4c(nn3-c3cc(C)c(F)c(C)c3)CCN(C(=O)c3cc5cc(C6CCOCC6)ccc5n3[C@@]3(c5noc(=O)[nH]5)C[C@@H]3C)[C@H]4C)c2=O)ccc1P(=O)(C1CC1)C1CC1 [Compound 132a, 3-((1S,2S)-1-(2-((S)-3-(3-(4-(dicyclopropylphosphoryl)-3-(methylamino)phenyl)-2-oxo-2,3-dihydro-1H-imidazol-1-yl)-2-(4-fluoro-3,5-dimethylphenyl)-4-methyl-4,5,6,7-tetrahydro-2H-pyrazolo[4,3-c]pyridine-5-carbonyl)-5-(tetrahydro-2H-pyran-4-yl)-1H-indol-1-yl)-2-methylcyclopropyl)-1,2,4-oxadiazol-5(4H)-one]
0.2 to 0.5	0.1 to 1	CCP(=O)(CC)c1ccc(-n2ccn(-c3c4c(nn3-c3cc(C)c(F)c(C)c3)CCN(C(=O)c3cc5cc(C6CCOCC6)ccc5n3[C@@]3(c5noc(=O)[nH]5)C[C@@H]3C)[C@H]4C)c2=O)cc1OC(F)F [Compound 136a, 3-((1S,2S)-1-(2-((S)-3-(3-(4-(diethylphosphoryl)-3-(difluoromethoxy)phenyl)-2-oxo-2,3-dihydro-1H-imidazol-1-yl)-2-(4-fluoro-3,5-dimethylphenyl)-4-methyl-4,5,6,7-tetrahydro-2H-pyrazolo[4,3-c]pyridine-5-carbonyl)-5-(tetrahydro-2H-pyran-4-yl)-1H-indol-1-yl)-2-methylcyclopropyl)-1,2,4-oxadiazol-5(4H)-one]
< 0.1	≤ 0.1	CCP(=O)(CC)c1ccc(-n2ccn(-c3c4c(nn3-c3cc(C)c(F)c(C)c3)CCN(C(=O)c3cc5cc(C6CCOCC6)ccc5n3[C@@]3(c5noc(=O)[nH]5)C[C@@H]3C)[C@H]4C)c2=O)cc1N [Compound 138a, 3-((1S,2S)-1-(2-((S)-3-(3-(3-amino-4-(diethylphosphoryl)phenyl)-2-oxo-2,3-dihydro-1H-imidazol-1-yl)-2-(4-fluoro-3,5-dimethylphenyl)-4-methyl-4,5,6,7-tetrahydro-2H-pyrazolo[4,3-c]pyridine-5-carbonyl)-5-(tetrahydro-2H-pyran-4-yl)-1H-indol-1-yl)-2-methylcyclopropyl)-1,2,4-oxadiazol-5(4H)-one]
< 0.1	≤ 0.1	CCP(=O)(CC)c1ncc(-n2ccn(-c3c4c(nn3-c3cc(C)c(F)c(C)c3)CCN(C(=O)c3cc5cc(C6CCOCC6)ccc5n3[C@@]3(c5noc(=O)[nH]5)C[C@@H]3C)[C@H]4C)c2=O)cc1NC [Compound 139a, 3-((1S,2S)-1-(2-((S)-3-(3-(6-(diethylphosphoryl)-5-(methylamino)pyridin-3-yl)-2-oxo-2,3-dihydro-1H-imidazol-1-yl)-2-(4-fluoro-3,5-dimethylphenyl)-4-methyl-4,5,6,7-tetrahydro-2H-pyrazolo[4,3-c]pyridine-5-carbonyl)-5-(tetrahydro-2H-pyran-4-yl)-1H-indol-1-yl)-2-methylcyclopropyl)-1,2,4-oxadiazol-5(4H)-one]

— US20240366639A1, “HETEROCYCLIC GLP-1 AGONISTS” (GASHERBRUM BIO, INC., priority 2021, published 2024)
